For 14 compounds, inhibition, Kv1.5% inhibition and IC50 results are on record in patent publication US7507730B2, “Substituted pyrazolo[1,5-a]pyrimidines as potassium channel activators” (Bristol-Myers Squibb Company, priority 2005, dated 2009).

Sequence of Kv1.5 (P22460 whole entry): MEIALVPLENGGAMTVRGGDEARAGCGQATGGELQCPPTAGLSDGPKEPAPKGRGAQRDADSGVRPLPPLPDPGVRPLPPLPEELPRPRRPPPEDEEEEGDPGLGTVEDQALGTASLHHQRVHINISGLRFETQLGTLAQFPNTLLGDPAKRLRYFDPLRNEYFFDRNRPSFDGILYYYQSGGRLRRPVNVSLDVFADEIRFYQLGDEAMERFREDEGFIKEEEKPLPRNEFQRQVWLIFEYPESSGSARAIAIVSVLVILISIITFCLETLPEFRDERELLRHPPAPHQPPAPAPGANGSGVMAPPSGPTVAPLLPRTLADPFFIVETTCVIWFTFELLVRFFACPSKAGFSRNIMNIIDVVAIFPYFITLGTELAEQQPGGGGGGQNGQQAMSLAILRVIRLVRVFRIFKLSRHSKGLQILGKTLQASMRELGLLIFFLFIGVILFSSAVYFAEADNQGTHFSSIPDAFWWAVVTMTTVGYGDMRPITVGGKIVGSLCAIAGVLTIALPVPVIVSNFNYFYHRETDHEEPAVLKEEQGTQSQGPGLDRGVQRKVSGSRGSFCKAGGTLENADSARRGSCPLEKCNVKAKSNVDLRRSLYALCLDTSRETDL

One assay concerns the target Kv1.5 (Homo sapiens, UniProt P22460). Description: Kv1.5 inhibition assay (IKur inhibitor assay per cited references). Type of assay: cell-based. The note with it: at 0.3 μM. The text has this:
Assays to determine the degree of activity of a compound as an IKur inhibitor are well known in the art and are described in references such as J. Gen. Physiol. Apr.; 101 (4):513-43, and Br. J. Pharmacol. 1995 May; 115(2):267-74.
On to `CCCS(=O)(=O)N(C)C(=O)C1=C(C)Nc2cc(C(F)(F)F)nn2C1c1ccc(Cl)c(Cl)c1` (single isomer, unassigned) [Example 91 Isomer 1, 7-(3,4-Dichlorophenyl)-N,5-dimethyl-N-(propylsulfonyl)-2-(trifluoromethyl)-4,7-dihydropyrazolo[1,5-a]pyrimidine-6-carboxamide], for which the inhibition at 0.3 µM amounted to 72%.
For `CCCS(=O)(=O)N(C)C(=O)C1=C(C)Nc2cc(C(F)(F)F)nn2C1c1ccc(Cl)c(Cl)c1` (single isomer, unassigned) [Example 91 Isomer 2, 7-(3,4-Dichlorophenyl)-N,5-dimethyl-N-(propylsulfonyl)-2-(trifluoromethyl)-4,7-dihydropyrazolo[1,5-a]pyrimidine-6-carboxamide], the Kv1.5% inhibition is on record as 52%.
The compound `CCN(C(=O)C1=C(C)Nc2cc(C(F)(F)F)nn2C1c1ccc(Cl)c(Cl)c1)S(=O)(=O)c1ccc(Cl)cc1` (single isomer, unassigned) [Example 93 Isomer 1, N-(4-Chlorophenylsulfonyl)-7-(3,4-dichlorophenyl)-N-ethyl-5-methyl-2-(trifluoromethyl)-4,7-dihydropyrazolo[1,5-a]pyrimidine-6-carboxamide] returned an inhibition at 0.3 µM of 31%.
As for `CCN(C(=O)C1=C(C)Nc2cc(C(F)(F)F)nn2C1c1ccc(Cl)c(Cl)c1)S(=O)(=O)c1ccc(Cl)cc1` (single isomer, unassigned) [Example 93 Isomer 2, N-(4-Chlorophenylsulfonyl)-7-(3,4-dichlorophenyl)-N-ethyl-5-methyl-2-(trifluoromethyl)-4,7-dihydropyrazolo[1,5-a]pyrimidine-6-carboxamide], the Kv1.5% inhibition is listed as 27%.
Compound `CC1=C(C(=O)N(C)S(=O)(=O)c2c(C)noc2C)C(c2ccc(Cl)c(Cl)c2)n2nc(C)cc2N1` (single isomer, unassigned) [Example 94 Isomer 1, 7-(3,4-Dichlorophenyl)-N-(3,5-dimethylisoxazol-4-ylsulfonyl)-N,2,5-trimethyl-4,7-dihydropyrazolo[1,5-a]pyrimidine-6-carboxamide] came in with an inhibition at 0.3 µM of 80%.
On to `CC1=C(C(=O)N(C)S(=O)(=O)c2c(C)noc2C)C(c2ccc(Cl)c(Cl)c2)n2nc(C)cc2N1` (single isomer, unassigned) [Example 94 Isomer 2, 7-(3,4-Dichlorophenyl)-N-(3,5-dimethylisoxazol-4-ylsulfonyl)-N,2,5-trimethyl-4,7-dihydropyrazolo[1,5-a]pyrimidine-6-carboxamide], for which the Kv1.5% inhibition was 63%.
Regarding `CC1=C(C(=O)N(C)S(=O)(=O)c2c(C)noc2C)C(c2ccc(Cl)c(Cl)c2)n2nc(C(F)(F)F)cc2N1` (single isomer, unassigned) [Example 95 Isomer 1, 7-(3,4-Dichlorophenyl)-N-(3,5-dimethylisoxazol-4-ylsulfonyl)-N,5-dimethyl-2-(trifluoromethyl)-4,7-dihydropyrazolo[1,5-a]pyrimidine-6-carboxamide], the inhibition at 0.3 µM amounted to 91%.
Turning to `CC1=C(C(=O)N(C)S(=O)(=O)c2c(C)noc2C)C(c2ccc(Cl)c(Cl)c2)n2nc(C(F)(F)F)cc2N1` (single isomer, unassigned) [Example 95 Isomer 2, 7-(3,4-Dichlorophenyl)-N-(3,5-dimethylisoxazol-4-ylsulfonyl)-N,5-dimethyl-2-(trifluoromethyl)-4,7-dihydropyrazolo[1,5-a]pyrimidine-6-carboxamide], the Kv1.5% inhibition was found to be 71%.
In the case of `CC1=C(C(=O)N(C)S(=O)(=O)C(C)C)C(c2ccc(Cl)c(Cl)c2)n2nc(C(F)(F)F)cc2N1` (single isomer, unassigned) [Example 96 Isomer 1, 7-(3,4-Dichlorophenyl)-N-(isopropylsulfonyl)-N,5-dimethyl-2-(trifluoromethyl)-4,7-dihydropyrazolo[1,5-a]pyrimidine-6-carboxamide], testing at 0.3 µM gave an inhibition of 57%.
In the case of `CC1=C(C(=O)N(C)S(=O)(=O)C(C)C)C(c2ccc(Cl)c(Cl)c2)n2nc(C(F)(F)F)cc2N1` (single isomer, unassigned) [Example 96 Isomer 2, 7-(3,4-Dichlorophenyl)-N-(isopropylsulfonyl)-N,5-dimethyl-2-(trifluoromethyl)-4,7-dihydropyrazolo[1,5-a]pyrimidine-6-carboxamide], the Kv1.5% inhibition came to 56%.
`CCN(C(=O)C1=C(C)Nc2cc(C)nn2C1c1ccc(Cl)c(Cl)c1)S(=O)(=O)c1c(C)noc1C` (single isomer, unassigned) [Example 97 Isomer 1, 7-(3,4-Dichlorophenyl)-N-(3,5-dimethylisoxazol-4-ylsulfonyl)-N-ethyl-2,5-dimethyl-4,7-dihydropyrazolo[1,5-a]pyrimidine-6-carboxamide] returned a Kv1.5% inhibition of 91%.
The same measure, in the same setting: the figure for `CCN(C(=O)C1=C(C)Nc2cc(C)nn2C1c1ccc(Cl)c(Cl)c1)S(=O)(=O)c1c(C)noc1C` (single isomer, unassigned) [Example 97 Isomer 2, 7-(3,4-Dichlorophenyl)-N-(3,5-dimethylisoxazol-4-ylsulfonyl)-N-ethyl-2,5-dimethyl-4,7-dihydropyrazolo[1,5-a]pyrimidine-6-carboxamide] is 50%.

Staying with this assay, now noted: read-out: Kv1.5 IC50.
Consider `CC1=C(C(=O)N(C)S(=O)(=O)C2CC2)C(c2ccc(Cl)c(Cl)c2)n2nc(C(F)(F)F)cc2N1` (single isomer, unassigned) [Example 98 Isomer 1, N-(Cyclopropylsulfonyl)-7-(3,4-dichlorophenyl)-N,5-dimethyl-2-(trifluoromethyl)-4,7-dihydropyrazolo[1,5-a]pyrimidine-6-carboxamide], for which the IC50 is 112 nM.
The same measure, in the same setting: then `CC1=C(C(=O)N(C)S(=O)(=O)C2CC2)C(c2ccc(Cl)c(Cl)c2)n2nc(C(F)(F)F)cc2N1` (single isomer, unassigned) [Example 98 Isomer 2, N-(Cyclopropylsulfonyl)-7-(3,4-dichlorophenyl)-N,5-dimethyl-2-(trifluoromethyl)-4,7-dihydropyrazolo[1,5-a]pyrimidine-6-carboxamide], with 200 nM.

As usually defined, the inhibition is the percentage by which the read-out fell short of the control. A low value points to a response near the control. For orientation: IC50 means the concentration that inhibits the measured activity by half.
